Data: ChEMBL document CHEMBL1221287 (Bioorg Med Chem Lett, 2010)

Tests used:
Carbonic anhydrase 1 = Carbonic anhydrase 1 (Homo sapiens, UniProt P00915)
Description: Inhibition of human carbonic anhydrase 1 after 15 mins by stopped flow CO2 hydration method

Carbonic anhydrase 2 = Carbonic anhydrase 2 (Homo sapiens, UniProt P00918)
Description: Inhibition of human carbonic anhydrase 2 after 15 mins by stopped flow CO2 hydration method

Carbonic anhydrase 3 = Carbonic anhydrase 3 (Homo sapiens, UniProt P07451)
Description: Inhibition of human carbonic anhydrase 3 after 15 mins by stopped flow CO2 hydration method

Carbonic anhydrase 4 = Carbonic anhydrase 4 (Homo sapiens, UniProt P22748)
Description: Inhibition of human carbonic anhydrase 4 after 15 mins by stopped flow CO2 hydration method

[1] = biological target: Carbonic anhydrase 5A, mitochondrial (Homo sapiens, UniProt P35218)
Description: Inhibition of human carbonic anhydrase 5a after 15 mins by stopped flow CO2 hydration method

[2] = biological target: Carbonic anhydrase 5B, mitochondrial (Homo sapiens, UniProt Q9Y2D0)
Description: Inhibition of human carbonic anhydrase 5b after 15 mins by stopped flow CO2 hydration method

Carbonic anhydrase 6 = Carbonic anhydrase 6 (Homo sapiens, UniProt P23280)
Description: Inhibition of human carbonic anhydrase 6 after 15 mins by stopped flow CO2 hydration method

Carbonic anhydrase 7 = Carbonic anhydrase 7 (Homo sapiens, UniProt P43166)
Description: Inhibition of human carbonic anhydrase 7 after 15 mins by stopped flow CO2 hydration method

Carbonic anhydrase 12 = Carbonic anhydrase 12 (Homo sapiens, UniProt O43570)
Description: Inhibition of human carbonic anhydrase 12 after 15 mins by stopped flow CO2 hydration method

Carbonic anhydrase 13 = Carbonic anhydrase 13 (Homo sapiens, UniProt Q8N1Q1)
Description: Inhibition of human carbonic anhydrase 13 after 15 mins by stopped flow CO2 hydration method

Carbonic anhydrase 14 = Carbonic anhydrase 14 (Homo sapiens, UniProt Q9ULX7)
Description: Inhibition of human carbonic anhydrase 14 after 15 mins by stopped flow CO2 hydration method

Carbonic anhydrase 15 = biological target: T1, Carbonic anhydrase 15 (Mus musculus, UniProt Q99N23)
T1 sequence (Q99N23 whole entry): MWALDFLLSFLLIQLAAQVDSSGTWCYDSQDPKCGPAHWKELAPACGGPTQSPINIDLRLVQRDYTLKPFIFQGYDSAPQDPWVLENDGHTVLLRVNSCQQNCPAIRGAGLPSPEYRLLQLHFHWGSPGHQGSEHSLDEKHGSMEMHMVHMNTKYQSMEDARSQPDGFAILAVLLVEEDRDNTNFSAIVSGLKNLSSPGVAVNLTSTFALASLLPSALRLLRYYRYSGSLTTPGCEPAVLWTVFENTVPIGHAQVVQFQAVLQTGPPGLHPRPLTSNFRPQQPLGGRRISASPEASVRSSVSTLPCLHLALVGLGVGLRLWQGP
Description: Inhibition of mouse carbonic anhydrase 15 after 15 mins by stopped flow CO2 hydration method

Carbonic anhydrase 9 = Carbonic anhydrase 9 (Homo sapiens, UniProt Q16790)
Description: Inhibition of human carbonic anhydrase 9 after 15 mins by stopped flow CO2 hydration method

Sequence of Carbonic anhydrase 6 (P23280 whole entry): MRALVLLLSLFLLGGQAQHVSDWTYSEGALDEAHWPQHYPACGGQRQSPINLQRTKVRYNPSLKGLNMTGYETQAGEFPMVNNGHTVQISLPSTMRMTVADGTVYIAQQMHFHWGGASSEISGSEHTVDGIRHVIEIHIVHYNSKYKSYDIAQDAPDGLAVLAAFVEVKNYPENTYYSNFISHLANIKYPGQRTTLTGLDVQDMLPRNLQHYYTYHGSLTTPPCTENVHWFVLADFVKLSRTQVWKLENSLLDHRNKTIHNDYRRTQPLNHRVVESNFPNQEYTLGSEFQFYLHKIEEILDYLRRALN
Sequence of Carbonic anhydrase 13 (Q8N1Q1 whole entry): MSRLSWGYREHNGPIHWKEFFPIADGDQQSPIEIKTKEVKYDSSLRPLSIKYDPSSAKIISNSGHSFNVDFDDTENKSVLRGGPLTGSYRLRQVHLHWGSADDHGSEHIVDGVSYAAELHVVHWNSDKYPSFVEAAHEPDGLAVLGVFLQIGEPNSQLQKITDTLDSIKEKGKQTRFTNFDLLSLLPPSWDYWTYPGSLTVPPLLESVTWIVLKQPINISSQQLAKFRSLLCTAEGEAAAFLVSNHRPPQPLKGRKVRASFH
Sequence of Carbonic anhydrase 4 (P22748 whole entry): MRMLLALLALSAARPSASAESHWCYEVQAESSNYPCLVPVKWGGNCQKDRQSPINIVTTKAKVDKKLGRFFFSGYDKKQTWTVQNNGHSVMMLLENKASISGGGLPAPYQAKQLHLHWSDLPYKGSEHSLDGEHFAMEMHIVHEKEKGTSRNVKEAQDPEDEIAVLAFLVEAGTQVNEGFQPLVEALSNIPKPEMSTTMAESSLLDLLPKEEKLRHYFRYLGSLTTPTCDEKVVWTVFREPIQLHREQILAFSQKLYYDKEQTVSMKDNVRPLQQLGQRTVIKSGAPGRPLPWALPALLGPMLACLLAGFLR
Sequence of Carbonic anhydrase 5A, mitochondrial (P35218 whole entry): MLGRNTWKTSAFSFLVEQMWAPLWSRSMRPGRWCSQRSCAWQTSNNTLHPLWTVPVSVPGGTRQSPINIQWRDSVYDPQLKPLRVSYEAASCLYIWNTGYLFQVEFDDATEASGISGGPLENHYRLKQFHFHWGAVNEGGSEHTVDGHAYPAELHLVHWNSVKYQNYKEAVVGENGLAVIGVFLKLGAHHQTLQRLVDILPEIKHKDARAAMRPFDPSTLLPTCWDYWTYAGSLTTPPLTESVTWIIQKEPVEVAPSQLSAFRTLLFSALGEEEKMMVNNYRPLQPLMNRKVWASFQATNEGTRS
Sequence of Carbonic anhydrase 5B, mitochondrial (Q9Y2D0 whole entry): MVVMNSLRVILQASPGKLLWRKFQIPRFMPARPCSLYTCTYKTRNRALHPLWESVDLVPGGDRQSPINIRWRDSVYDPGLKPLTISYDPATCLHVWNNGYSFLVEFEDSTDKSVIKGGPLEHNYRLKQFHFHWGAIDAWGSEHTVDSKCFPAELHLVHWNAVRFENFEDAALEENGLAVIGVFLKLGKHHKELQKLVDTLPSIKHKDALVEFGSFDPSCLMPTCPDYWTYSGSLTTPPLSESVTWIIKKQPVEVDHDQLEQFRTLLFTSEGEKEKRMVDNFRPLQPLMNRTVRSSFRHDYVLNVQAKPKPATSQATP
Sequence of Carbonic anhydrase 7 (P43166 whole entry): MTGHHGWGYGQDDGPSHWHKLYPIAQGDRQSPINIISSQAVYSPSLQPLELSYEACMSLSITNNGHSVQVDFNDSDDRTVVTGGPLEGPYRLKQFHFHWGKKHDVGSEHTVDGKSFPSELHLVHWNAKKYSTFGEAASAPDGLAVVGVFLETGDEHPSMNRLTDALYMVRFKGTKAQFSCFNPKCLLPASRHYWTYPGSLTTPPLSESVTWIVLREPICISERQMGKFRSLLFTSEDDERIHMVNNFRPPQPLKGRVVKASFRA
Sequence of Carbonic anhydrase 12 (O43570 whole entry): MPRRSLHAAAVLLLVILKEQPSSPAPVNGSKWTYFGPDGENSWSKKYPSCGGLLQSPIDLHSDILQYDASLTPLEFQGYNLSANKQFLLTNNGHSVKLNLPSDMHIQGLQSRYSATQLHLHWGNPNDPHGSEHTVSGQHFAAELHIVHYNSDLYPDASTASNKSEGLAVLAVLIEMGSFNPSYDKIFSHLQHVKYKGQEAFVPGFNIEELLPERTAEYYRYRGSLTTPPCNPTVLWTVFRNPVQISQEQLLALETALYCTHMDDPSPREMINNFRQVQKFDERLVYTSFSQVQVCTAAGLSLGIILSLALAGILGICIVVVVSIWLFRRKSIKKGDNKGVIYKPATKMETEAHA
Sequence of Carbonic anhydrase 3 (P07451 whole entry): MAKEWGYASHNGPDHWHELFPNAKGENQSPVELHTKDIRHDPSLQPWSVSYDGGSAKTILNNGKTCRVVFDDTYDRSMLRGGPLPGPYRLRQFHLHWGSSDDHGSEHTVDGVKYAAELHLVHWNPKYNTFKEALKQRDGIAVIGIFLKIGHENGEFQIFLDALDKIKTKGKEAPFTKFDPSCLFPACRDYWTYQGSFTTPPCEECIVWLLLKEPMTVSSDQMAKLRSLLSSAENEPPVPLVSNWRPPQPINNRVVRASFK
Sequence of Carbonic anhydrase 1 (P00915 whole entry): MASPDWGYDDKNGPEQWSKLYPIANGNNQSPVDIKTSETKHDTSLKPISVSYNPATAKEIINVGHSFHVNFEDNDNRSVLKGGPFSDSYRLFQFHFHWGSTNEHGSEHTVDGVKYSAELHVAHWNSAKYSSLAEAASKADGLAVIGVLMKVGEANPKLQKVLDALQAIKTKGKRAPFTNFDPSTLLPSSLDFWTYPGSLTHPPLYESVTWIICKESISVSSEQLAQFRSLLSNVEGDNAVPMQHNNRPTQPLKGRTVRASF
Sequence of Carbonic anhydrase 14 (Q9ULX7 whole entry): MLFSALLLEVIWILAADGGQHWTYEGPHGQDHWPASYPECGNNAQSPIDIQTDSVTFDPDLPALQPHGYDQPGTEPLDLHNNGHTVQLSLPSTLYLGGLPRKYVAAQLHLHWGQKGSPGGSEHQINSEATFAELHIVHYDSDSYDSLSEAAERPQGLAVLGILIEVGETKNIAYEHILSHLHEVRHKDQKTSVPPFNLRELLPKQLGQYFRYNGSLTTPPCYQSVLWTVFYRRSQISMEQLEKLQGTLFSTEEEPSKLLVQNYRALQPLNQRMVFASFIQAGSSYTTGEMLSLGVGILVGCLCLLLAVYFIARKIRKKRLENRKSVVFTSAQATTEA

Ki (Carbonic anhydrase 3) [µM] | Ki (Carbonic anhydrase 4) [µM] | Ki [1] [µM] | Ki [2] [µM] | Ki (Carbonic anhydrase 6) [µM] | Ki (Carbonic anhydrase 7) [µM] | Ki (Carbonic anhydrase 12) [µM] | Ki (Carbonic anhydrase 14) [µM] | Ki (Carbonic anhydrase 15) [µM] | Ki (Carbonic anhydrase 9) [µM] | SMILES | Ki (Carbonic anhydrase 1) [µM] | Ki (Carbonic anhydrase 2) [µM] | Ki (Carbonic anhydrase 13) [µM]
9.09 | 4.47 | 4.75 | 4.64 | 8.07 | 4.35 | 0.95 | 0.83 | 9.36 | 0.81 | Oc1ccc(/C=C/c2cc(O)cc(O)c2)cc1 [RESVERATROL] | 2.21 | 2.77 | 4.09
3.58 | 4.9 | 4.21 | 4.02 | 4.91 | 0.45 | 4.72 | 11.5 | 7.68 | 5.03 | Oc1cc(O)c2c(c1)O[C@H](c1ccc(O)c(O)c1)[C@@H](O)C2 [CATECHIN] | 2.42 | 1.84 | 10.5
11.3 | 4.97 | 10.2 | 9.46 | 9.94 | 9.3 | 3.48 | 11.7 | 5.09 | 4.05 | COc1cc(/C=C/C(=O)CC(=O)/C=C/c2ccc(O)c(OC)c2)ccc1O [CURCUMIN] |  |  | 6.85
 |  |  |  |  |  |  |  |  |  | Oc1ccccc1 [PHENOL] |  |  | 697

SMILES | Ki (Carbonic anhydrase 3) [µM] | Ki (Carbonic anhydrase 4) [µM] | Ki [1] [µM] | Ki [2] [µM] | Ki (Carbonic anhydrase 6) [µM] | Ki (Carbonic anhydrase 7) [µM] | Ki (Carbonic anhydrase 12) [µM] | Ki (Carbonic anhydrase 14) [µM] | Ki (Carbonic anhydrase 15) [µM] | Ki (Carbonic anhydrase 9) [µM] | Ki (Carbonic anhydrase 1) [µM] | Ki (Carbonic anhydrase 2) [µM] | Ki (Carbonic anhydrase 13) [µM]
O=C(O)/C=C/c1ccccc1O [O-COUMARIC ACID] | > 1000 | 62.3 | > 1000 | 578 | > 1000 | > 1000 | > 1000 | > 1000 | > 1000 | > 1000 | 3.1 | 9.2 | > 1000
CC(CCc1ccc(O)cc1)NCCc1ccc(O)c(O)c1 (centres undefined) [DOBUTAMINE] | 7.4 | 8.98 | 0.73 | 0.89 | 9.47 | 4.3 | 4.35 | 12 | 0.39 | 9.82 | 1.92 | 0.48 | 9.53
